Values quoted from earlier work, collected in paper PMC9008720 (Biomedical chromatography : BMC, 2022).

System: GBM tumor
Details: ref Zalcman et al., 2018

CNC(=O)c1ccc(N2C(=S)N(c3ccc(C#N)c(C(F)(F)F)c3)C(=O)C2(C)C)cc1F [enzalutamide]
GBM tumor growth in nude mice: reduced the GBM tumor growth
